For one data set, the target named is human GLP1R (hGLP1R) (Homo sapiens, UniProt P43220). Put plainly: Human GLP1R cAMP agonist assay (GloSensor). The settings on record: HEK293-SNAP-hGLP1R-GloSensor cells; for EC50: intracellular cAMP, mean n=3 where SEM is given; for Emax: read-out: Emax mean. It counts as cell-based. Here is the method: Compounds 1 to 31 were tested in the following cellular assays that measure the intracellular cAMP concentration, beta-arrestin recruitment and receptor internalization. The cAMP is generated by the activation of GLP1R. The cAMP data obtained is shown in Table 1 (where S.E.M. is included, mean n=3 independent experiments+/−S.E.M). Beta-arrestin is recruited upon activation of GLP1R and the data obtained are shown in Table 2 (mean n=2 independent experiments, +/−S.D). The extent to which the GLP1R is internalized into the cell and away from the plasma membrane following activation is also shown in Table 2 (mean n=2 independent experiments, +/−S.D). EC50 for each assay is defined as the concentration of the compound that leads to half of the maximum response (after baseline correction). Emax is defined as the maximum response observed for the test compound, normalized to the maximum response observed for the endogenous ligand (GLP1(7-36)) to GLP1R.
Human GLP1R cAMP Agonist Assay
The agonist activity of compounds was determined using the GloSensor™ cAMP Assay (Promega Corp.), which measures changes in the intracellular concentration of cAMP after ligand activation of GPCRs. The assay uses a biosensor encoded by pGloSensor™-22F cAMP plasmid (Promega, cat #E2301) with cAMP binding domains fused to a mutant form of Photinus pyralis luciferase. Binding to cAMP causes conformational changes that promote large increases in light output, which can be measured by a luminescence detector. HEK293-SNAP-hGLP1R-GloSensor cells stably overexpressing the human GLP1 receptor (hGLP1R) and pGloSensor™-22F were seeded in white 384-well poly-D-Lysine coated plates (Greiner Bio One, cat #781945) in CO2-independent media (Gibco cat #18045-088 with 1.0% FBS, 2 mM L-glutamine, penicillin and streptomycin) and incubated overnight at 37° C., 5% CO2 with humidity. The assay was started the following morning by adding an equal volume of CO2-independent media containing 4% v/v dilution of the GloSensor substrate (Promega, cat #E1291) to all wells. The cell plate was incubated at rt for 2 h in the dark. The Biomek 7 (Beckman Coulter) instrument was used for the liquid handling steps. To generate duplicate dose response curves, 3-fold serially diluted compounds were added in to the cell assay plate to a final volume of 60 μL with final concentrations ranging from 30 μM through 0.06 μM in CO2-independent media containing 0.1% BSA, 0.5 mM IBMX and 0.4% DMSO. In the same plate and assay buffer as the tested compounds, were EC100 control wells containing GLP1 (7-36) peptide (Bachem, cat #H-6795) at a final concentration of 2 nM and also EC0 control wells containing no peptide. This plate was incubated at rt in the dark for 12 min after adding the compounds to the cells. Luminescence was then measured with an Envision 2104 Multilabel reader with “TRF Light Unit, 337 nm” (PerkinElmer) using the Ultra-Sensitive protocol setting “384-well US luminescence detector” with the 384-well luminescence aperture, 0.1 seconds per well. cAMP activity was calculated as percent of the GLP1 (7-36) EC100 control wells: [(sample signal−mean EC0 signal)/(mean EC100 of GLP1 (7-36) signal−mean EC0 signal)}*100. Curve fitting for EC50 determinations was performed in the Helios module of the software package DAVID. The 4-parameter logistic model, Hill slope was used: y=Ainf+(A0−Ainf)/(1+(x/AC50)^Hill Slope) where y is the functional response; x is the compound concentration; A0 is the minimum value (at 0 dose); Ainf is the maximum value (at infinite dose); AC50 corresponds to the point of inflection (i.e. the point on the sigmoid shaped curve halfway between A0 and Ainf). The EC50 value was represented by the AC50 value calculated from Helios in μM. Emax is the maximal activity detected within the concentration range, derived from the fitted curve. […]

Data set [1] in a line: Pharmacokinetics in C57BL/6 mice (i.v. and oral). Particulars: for BAV: male C57BL/6 mice, 3 mg/kg oral dose vs 1 mg/kg i.v.; for AUC(0-inf) / Vd / clearance / half-life / Cmax / Tmax: male, C57BL/6, mouse, in vivo. Here is the method:
Blood concentration versus time profiles were obtained from 2 groups of 3 male mice. The compound was administered intravenously (i.v.) by bolus injection (5 mL/kg) at a dose of 1 mg/kg in N-methyl-2-pyrrolidone (10%) and 4% bovine serum albumins (BSA) in phosphate-buffered saline (PBS) (90%) or orally administered at a dose of 3 mg/kg (10 mL/kg) as a homogenous suspension of Water (99.4%), Tween 80 (0.1%) and methylcellulose (0.5%). Following compound administration, blood (10 μL/time point) were collected by puncture of the tail vein into ethylenediaminetetraacetic (EDTA)-coated tubes, at 0.083 (i.v. only), 0.25, 0.5, 1, 3, 7, & 24 hours post dose.
Bioanalysis: An aliquot of 10 μL of blood sample and matrix calibration standards were added to a 96-well plate. The samples were extracted using a protein precipitation procedure with addition of 80 μL acetonitrile containing internal standard. The samples were vortexed and centrifuged at 3000 rpm for 5 minutes. A 70 μL aliquot of supernatant was transferred to a clean 96-well plate and a 70 μL of water was added to each well and vortexed. Samples were analyzed and quantified by LC-MS/MS using the conditions outlined below.
• Mass Spectrometer: AP16500+ • Liquid Chromatograph: Agilent 1290 for Compound 3; Shimadzu LC30 AD for Compound 5 • Autosampler (ALS): Agilent 1290 for Compound 3; Shimadzu SIL30AC for Compound 5
• LC Column Acquity BEH C18, 50×2.1 mm, 1.7 μm • Solvent A: • 5:95:0.1 (v:v:v) Acetonitrile:Water:Formic Acid for Compound 3 • 100:0.1 (v:v) Water:Formic acid for Compound 5 • Solvent B: • 50:50:0.1 (v:v:v) Acetonitrile:Methanol:Formic Acid for Compound 3 • 100:0.1 (v:v) Acetonitrile:Formic acid for Compound 5 • Injection Volume [μL]: 1 for Compound 5; 20 for Compound 3 • Column Oven Temp. [° C.]: 50 Compound 3; 40 for Compound 5 • ALS Temp. [° C.]: 5
• Ion Source: TIS • Polarity: Positive • Temperature: 550 • Gas 1: 55 • Gas 2: 55 • Curtain Gas: 20 • Ion Spray Voltage [V]: 5500 for Compound 5; 4500 for Compound 3 • CAD Gas: 9

The mark [2] stands for this setting: cAMP, normalized to GLP1(7-36) maximum response.

Sequence of human GLP1R (hGLP1R) (P43220 24-463): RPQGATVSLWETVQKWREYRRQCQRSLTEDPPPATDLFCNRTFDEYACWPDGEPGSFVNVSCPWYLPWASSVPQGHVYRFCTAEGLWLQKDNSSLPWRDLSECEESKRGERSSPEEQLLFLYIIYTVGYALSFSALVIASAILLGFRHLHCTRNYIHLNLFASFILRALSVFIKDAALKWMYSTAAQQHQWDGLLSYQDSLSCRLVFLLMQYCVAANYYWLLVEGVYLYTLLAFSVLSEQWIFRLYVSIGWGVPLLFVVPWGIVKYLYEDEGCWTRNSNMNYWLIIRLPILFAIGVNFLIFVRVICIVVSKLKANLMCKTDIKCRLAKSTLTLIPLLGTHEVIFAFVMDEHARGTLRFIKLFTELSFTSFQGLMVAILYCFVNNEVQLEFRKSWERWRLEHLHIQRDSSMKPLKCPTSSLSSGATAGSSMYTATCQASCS

In general, EC50 refers to the concentration giving half of the maximal effect. On human GLP1R (hGLP1R) (setting [2]), `CC(Cc1cnc(CN2CCC(c3cccc4c3O[C@@](C)(c3ccc(Cl)cc3F)O4)CC2)n1C[C@@H]1CCO1)C(=O)O` (single isomer, unassigned) [Compound C-17b] showed an Emax mean of 106%. This compound also yielded an EC50 at human GLP1R (hGLP1R) of 1.2 nM.
A word on the AUC(0-inf): it is the area under the concentration-time curve extrapolated to infinity. The term Vd denotes the apparent volume that relates the amount in the body to the concentration in plasma or blood. As a reminder, the clearance is the volume of plasma or blood freed of the substance per unit of time. High values mean efficient removal, low ones inefficient removal. What is called half-life is the time in which the quantity being followed falls by half. Lower therefore signals fast loss. As usually defined, the Cmax is the peak of the concentration-time curve. As usually defined, the Tmax is the time from dosing to the highest level. `C[C@]1(c2ccc(Cl)cc2F)Oc2cccc(C3CCN(Cc4nc5ccc(C(=O)O)cc5n4C[C@@H]4CCO4)CC3)c2O1` [compound 1, 2-((4-((S)-2-(4-chloro-2-fluorophenyl)-2-methylbenzo[d][1,3]dioxol-4-yl)piperidin-1-yl)methyl)-1-(((S)-oxetan-2-yl)methyl)-1H-benzo[d]imidazole-6-carboxylic acid, reference compound] displayed a BAV in data set [1] of 50.7%. In data set [1] (iv, 1 mg/kg), this compound gave an AUC(0-inf) of 1.19 ± 0.205 µM·h, a Vd of 2.13 ± 0.434 L/kg, a clearance of 1.45 ± 0.271 L/h/kg and a half-life of 1.25 ± 0.02 h. In data set [1] (po, 3 mg/kg), the AUC(0-inf) was found to be 1.98 µM·h, the Cmax amounted to 0.43 ± 0.0534 µM, the Tmax is 1 h and the half-life was 3.19 h.
What is called Emax is the size of the effect at its maximum, as opposed to the concentration needed. In the case of `Cc1nc(CN2CCC(c3cccc4c3O[C@@](C)(c3ccc(Cl)cc3F)O4)CC2)n(C[C@@H]2CCO2)c1C1CC1C(=O)O` (stereo partly drawn) [Compound C-9], the Emax on human GLP1R (hGLP1R) (setting [2]) was found to be 109%. Moreover, the EC50 on human GLP1R (hGLP1R) was determined as 0.418 nM.
The like results for `Cc1nc(CN2CCC(c3cccc4c3O[C@@](C)(c3ccc(Cl)cc3F)O4)CC2)n(C[C@@H]2CCO2)c1C(O)CC(=O)O` (mixture of isomers) [Compound C-28, 3-(2-((4-((S)-2-(4-chloro-2-fluorophenyl)-2-methylbenzo[d][1,3]dioxol-4-yl)piperidin-1-yl)methyl)-4-methyl-1-(((S)-oxetan-2-yl)methyl)-1H-imidazol-5-yl)-3-hydroxypropanoic acid] were, in that order, 110% and 1.08 nM.
Taken in the same sequence, the figures for `CCc1nc(CN2CCC(c3cccc4c3O[C@@](C)(c3ccc(Cl)cc3F)O4)CC2)n(C[C@@H]2CCO2)c1C(=O)O` [Compound C-27, 2-((4-((S)-2-(4-chloro-2-fluorophenyl)-2-methylbenzo[d][1,3]dioxol-4-yl)piperidin-1-yl)methyl)-4-ethyl-1-(((S)-oxetan-2-yl)methyl)-1H-imidazole-5-carboxylic acid] were 113% and 2.96 nM.
Consider `C[C@]1(c2ccc(Cl)cc2F)Oc2cccc(C3CCN(Cc4nc(C(F)(F)F)c(/C=C/C(=O)O)n4C[C@@H]4CCO4)CC3)c2O1` [Compound 8], for which the BAV in data set [1] is 60.9 ± 5.26%. In addition, in data set [1] (iv, 1 mg/kg), the AUC(0-inf) was determined as 3.75 ± 0.149 µM·h, the Vd was 1.65 ± 0.025 L/kg, the clearance was found to be 0.42 ± 0.017 L/h/kg and the half-life is 3.02 ± 0.168 h. Moreover, in data set [1] (po, 3 mg/kg), the AUC(0-inf) stood at 6.86 ± 0.591 µM·h, the Cmax was 0.768 ± 0.112 µM, the Tmax worked out at 1 h and the half-life is 2.7 ± 0.202 h.
In data set [1], `Cc1nc(CN2CCC(c3cccc4c3O[C@@](C)(c3ccc(Cl)cc3F)O4)CC2)n(C[C@@H]2CCO2)c1C(=O)O` [Compound 3] came in with a BAV of 50.1 ± 19.4%. Moreover, in data set [1] (iv, 1 mg/kg), the AUC(0-inf) was 2.79 ± 1.35 µM·h, the Vd was determined as 0.903 ± 0.282 L/kg, the clearance worked out at 0.738 ± 0.287 L/h/kg and the half-life is 1.28 ± 0.223 h. Further, in data set [1] (po, 3 mg/kg), the AUC(0-inf) came out at 3.74 ± 0.641 µM·h, the highest level (Cmax) was 1.47 ± 0.354 µM, the Tmax was 0.667 ± 0.289 h and the half-life was 1.84 ± 0.8 h.
Regarding `Cc1nc(CN2CCC(c3cccc4c3O[C@@](C)(c3ccc(Cl)cc3F)O4)CC2)n(C[C@@H]2CCO2)c1C12CC(C(=O)O)(C1)C2` [Compound C-23a, 3-(2-((4-((S)-2-(4-chloro-2-fluorophenyl)-2-methylbenzo[d][1,3]dioxol-4-yl)piperidin-1-yl)methyl)-4-methyl-1-(((S)-oxetan-2-yl)methyl)-1H-imidazol-5-yl)bicyclo[1.1.1]pentane-1-carboxylic acid], the Emax at human GLP1R (hGLP1R) (setting [2]) is 107%. At human GLP1R (hGLP1R), this compound came in with an EC50 of 1.2 nM.
Taken in the same sequence, the figures for `CC(Cc1cnc(CN2CCC(c3cccc4c3O[C@@](C)(c3ccc(Cl)cc3F)O4)CC2)n1C[C@@H]1CCO1)C(=O)O` (single isomer, unassigned) [Compound C-17a] were 104% and 1.2 nM.
Taken in the same sequence, the figures for `Cc1c(C(=O)O)nc(CN2CCC(c3cccc4c3O[C@@](C)(c3ccc(Cl)cc3F)O4)CC2)n1C[C@@H]1CCO1` [Compound C-4, 2-((4-((S)-2-(4-chloro-2-fluorophenyl)-2-methylbenzo[d][1,3]dioxol-4-yl)piperidin-1-yl)methyl)-5-methyl-1-(((S)-oxetan-2-yl)methyl)-1H-imidazole-4-carboxylic acid] were 109% and 8.28 nM.
Taken in the same sequence, the figures for `C[C@]1(c2ccc(Cl)cc2F)Oc2cccc(C3CCN(Cc4nc(-c5nnn[nH]5)c(C(F)(F)F)n4C[C@@H]4CCO4)CC3)c2O1` [Compound C-25, 4-((S)-2-(4-chloro-2-fluorophenyl)-2-methylbenzo[d][1,3]dioxol-4-yl)-1-((1-(((S)-oxetan-2-yl)methyl)-4-(1H-tetrazol-5-yl)-5-(trifluoromethyl)-1H-imidazol-2-yl)methyl)piperidine] were 110% and 8.63 nM.
As for `C[C@]1(c2ccc(Cl)cc2F)Oc2cccc(C3CCN(Cc4nc(-c5ccc(F)cc5)c(C#CC(=O)O)n4C[C@@H]4CCO4)CC3)c2O1` [Compound C-29, 3-(2-((4-((S)-2-(4-chloro-2-fluorophenyl)-2-methylbenzo[d][1,3]dioxol-4-yl)piperidin-1-yl)methyl)-4-(4-fluorophenyl)-1-(((S)-oxetan-2-yl)methyl)-1H-imidazol-5-yl)propiolic acid], on human GLP1R (hGLP1R) (setting [2]), the Emax turned out to be 104%. This compound also yielded a concentration for a half-maximal effect (EC50) at human GLP1R (hGLP1R) of 0.0473 nM.

These data come from US20240182456A1, “2-((4-((S)-2-(4-CHLORO-2-FLUOROPHENYL)-2-METHYLBENZO[D][1,3]DIOXOL-4-YL)PIPERIDIN-1-YL)METHYL)-1-(((S)-OXETAN-2-YL)METHYL)-1H-IMIDAZOLE DERIVATIVES AS ACTIVATORS OF THE GLP1 RECEPTOR FOR THE TREATMENT OF OBESITY” (Novartis AG, priority 2021, published 2024).
